From publication PMC6302903, “Protein and Chemical Determinants of BL-1249 Action and Selectivity for K2P Channels” (ACS Chemical Neuroscience, 2018)

How the values were obtained:
K2P2.1(TREK-1)Δ322 = biological target: T1, K2P2.1(TREK-1)Δ322 (Mus musculus, UniProt P97438); assay: TEVC of C-terminal truncation at residue 322; type: cell-based; settings: Xenopus oocytes, saturation not reached, fit with upper boundary of 15 (I/I0)
T1 construct: truncations at residue 322, K2P2.1(TREK-1)Δ322, equivalent to a previously described mutant called Δ89; expressed in transfected cells; host or cells: Xenopus laevis oocytes, mRNA injected
From the text: Constructs for murine K2P channels, including K2P2.1(TREK-1) (Gene ID 16526), K2P10.1(TREK-2) (Gene ID 72258), K2P4.1(TRAAK) (Gene ID 16528), K2P5.1(TASK-2) (Gene ID 16529), K2P3.1(TASK-1) (Gene ID 16527), K2P9.1(TASK-3) (Gene ID 223604), and K2P18.1(TRESK) (Gene ID 332396) in pGEMHE/pMO, were used for Xenopus oocyte experiments as previously described.[10],[26] Murine K2P2.1(TREK-1) (Gene ID 16526) was expressed in HEK-293 cells using a pIRES-EGFP construct as previously described.[26] Murine K2P13.1(THIK-1) (Gene ID 217826) and K2P1.1(TWIK-1) (Gene ID 16525) were cloned into pGEMHE/pMO for use in Xenopus oocytes. […]
(§1) Xenopus laevis oocytes were harvested in accordance with UCSF IACUC protocol AN129690 and digested in calcium-free ND-96 (96 mM NaCl, 2 mM KCl, 3.8 mM MgCl2) immediately following harvest, as previously described.[6],[10] […] Defolliculated stage V–VI oocytes were injected with 0.2–6.0 ng of mRNA in 50 nL, and currents were recorded 24–48 h after injection. mRNA was synthesized from plasmid DNA using mMessage mMachine Kit (T7 promoter, Ambion, Life Technologies) and purified using RNEasy Kit (Qiagen). […] Once stabilized basal currents were recorded, compounds were perfused at various concentrations in standard ND96 and currents were allowed to increase to stabilization before recording final current. […]

K2P3.1(TASK-1) = biological target: T2, K2P3.1(TASK-1) (Mus musculus, UniProt O35111); assay: TEVC of K2P3.1(TASK-1) in Xenopus oocytes; type: cell-based; settings: concentrations up to the solubility limit (∼80 μM)
T2 construct: expressed in transfected cells; host or cells: Xenopus laevis oocytes injected with mRNA made from pGEMHE/pMO
Description: BL-1249 activates K2P2.1(TREK-1)[18],[40] and K2P10.1(TREK-2),[7] but its effects on other K2P channels have not been characterized. […] In order to test if the original 10 μM assay had missed BL-1249 effects in other K2P channels, we tested concentrations of BL-1249 up to the solubility limit (∼80 μM) against the other K2P subfamily representatives. […]
as §1, with “current. Fold activation upon compound application is expressed as I/I0 (0 mV), derived from the current at 0 mV in the presence of compound divided by the basal current at 0 mV in standard ND96 without compound. Data were analyzed and plotted using Graphpad Prism Version 5 (GraphPad Software, San Diego California USA, www.graphpad.com).” for “current.”

T1 sequence (P97438 1-322 isoform P97438-2): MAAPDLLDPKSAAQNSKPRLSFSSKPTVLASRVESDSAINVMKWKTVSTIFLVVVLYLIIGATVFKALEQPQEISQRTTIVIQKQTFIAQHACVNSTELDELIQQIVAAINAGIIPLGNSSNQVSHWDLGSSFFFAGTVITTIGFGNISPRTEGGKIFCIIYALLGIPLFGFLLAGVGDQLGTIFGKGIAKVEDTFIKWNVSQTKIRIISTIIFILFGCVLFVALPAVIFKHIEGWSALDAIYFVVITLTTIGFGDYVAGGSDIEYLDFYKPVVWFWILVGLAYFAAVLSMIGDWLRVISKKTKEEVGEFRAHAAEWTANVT
T2 sequence (O35111 whole entry): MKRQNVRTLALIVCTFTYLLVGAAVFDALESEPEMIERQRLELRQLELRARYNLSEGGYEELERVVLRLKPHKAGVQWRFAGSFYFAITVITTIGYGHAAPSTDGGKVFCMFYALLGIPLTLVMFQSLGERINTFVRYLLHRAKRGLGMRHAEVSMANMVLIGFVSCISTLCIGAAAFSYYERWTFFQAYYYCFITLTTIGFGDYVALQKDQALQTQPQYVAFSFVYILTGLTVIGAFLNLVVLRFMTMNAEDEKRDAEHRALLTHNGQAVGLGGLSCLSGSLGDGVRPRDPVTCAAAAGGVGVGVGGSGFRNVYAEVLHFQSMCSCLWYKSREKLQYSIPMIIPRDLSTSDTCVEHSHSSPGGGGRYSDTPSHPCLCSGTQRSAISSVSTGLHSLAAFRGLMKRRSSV

EC50 (K2P2.1(TREK-1)Δ322): 26 ± 8 µM | activation of K2P3.1(TASK-1) (K2P3.1(TASK-1)): failed to find evidence for activation
Compound: c1ccc(-c2nnn[nH]2)c(Nc2cccc3c2CCCC3)c1 [BL-1249, (5,6,7,8-tetrahydro-naphthalen-1-yl)-[2-(1H-tetrazol-5-yl)-phenyl]-amine]
